{"source": "patent US6846937B2", "about": "“Method for the selective removal of acyl-functionality attached to the 2'-hydroxy-group of paclitaxel-related derivatives” (The University of Toledo, priority 2001, dated 2005)", "key": {"[1]": {"assay": "Stability of PAC and DAP CAC analogs in methanol at ambient temperature (HPLC decay curve)", "format": "physicochemical", "procedure": "During development of an HPLC method to purify 2′,7-bis-monochloroacetyl-10-deacetylpaclitaxel (2′,7-bis-CAC-DAP), the inventors discovered that the compound was unstable in methanol solution at a concentration of 1 mg/ml. […] Thus, we decided to further investigate the apparent differences in the stability of several PAC and DAP CAC esters relative to concentration and acidity.\nCompound abbreviations are provided in FIG. 2-Table 1 according to the nomenclature and numbering specified in FIG. 1. RT=Retention times on an analytical HPLC (Waters) equipped with a reversed-phase column (Supleco Discovery C18) using a gradient elution (60% acetonitrile from 0-2 min., linearly ramped from 60% to 75% from 2-12 min., and held steady at 75% for the duration of the assay) at a flow rate of 1.2 ml/min. monitored by UV detection (225 nm). NMR (CDCl3) values for the C2′ proton shifts are in ppm relative to TMS. T1/2=Apparent half-lives. All compounds were independently prepared and characterized by HPLC, NMR and elemental analyses. ^†Previously reported by Rao et al. ^††Previously reported by Rimoldi et al.^21 *Less than 5% breakdown after 72 hr.\nA 1 mg/ml solution of 2′,7-bis-CAC-DAP in methanol was allowed to stand at ambient temperature. 20 μl samples were withdrawn at T=0, 2, 24 and 48 hrs. Longer incubations were deployed for compounds showing little breakdown. Aliquots were assayed directly by HPLC after establishing that responses obtained for serial dilutions of a freshly prepared 10 mg/ml stock solution of 2′,7-bis-CAC-DAP were linear throughout the concentration range anticipated for the samples. A decay curve was generated by following the decrease in compound peak area versus time. An apparent half-life (T1/2) was then calculated from a semi-log plot using Microsoft Excel. The decay curve for 2′,7-bis-CAC-DAP appears to follow pseudo first-order kinetics typical for solvolysis reactions. The T1/2 value for conversion to 7-CAC-DAP is 5.5 hrs. The product growth curve matches very closely with the compound decay curve. Similar results were obtained for all of the other 2′-chloroacetylated derivatives listed in FIG. 2-Table 1 except for 2′ CAC-DAP whose T1/2 appears to be about three-times longer (18 hrs.). Nevertheless, this derivative is still much more labile than the chloroacetyl esters placed at either the 7- or 10-positions (T1/2 values all >>72 hrs.).\nFor the more concentrated experiments, a 10 mg/ml solution of 2′,7-bis-CAC-DAP was allowed to stand at ambient temperature. […] For the weakly acidic studies, less than 4% breakdown of 2′,7-bis-CAC-DAP was observed over 48 hrs. and the calculated T1/2 was determined to be >1,000 hrs. […]"}, "[2]": {"assay": "Alcoholysis of 2′-acyl group followed by analytical HPLC (Examples 1-4)", "format": "physicochemical", "source_text": "As part of research to better understand the interaction of PAC-related compounds with various components within cancer cells,^11,12 the inventors deployed CAC protection of both PAC and 10-deacetylpaclitaxel (DAP) (FIG. 4). During purification of various mixtures of the three predominate CAC derivatives obtained for DAP, namely the 2′-mono-, the 2′,7-bis- and the 2′,7,10-tri-CAC protected materials, the 2′-adducts appeared to be unstable when allowed to stand for prolonged periods in methanol. Testing purified materials on a 1 mg scale confirmed this observation. Moving to a larger sample, a 40 mL solution of 2′,7-bis-CAC-DAP was then examined at a concentration of 1 mg/mL. Methanolysis of the 2′-adduct was complete after 48 hours at ambient temperature. The exclusive product was isolated by evaporation of solvent, washed with cold water, and its structure characterized as 7-mono-CAC-DAP according to NMR (FIG. 5-Table 2) and elemental analysis. […] In this case the structural integrity for the latter was additionally confirmed by its independent synthesis analogous to a literature procedure^4 wherein after treatment of PAC with chloroacetic anhydride in pyridine, the reaction mixture was subjected to 10 mM ammonia at room temperature for 1 hour prior to preparative HPLC separation of the resulting mixture of esters.\n7-Monochloroacetyl-10-deactylpaclitaxel (7-CAC-DAP) (2). 2′,7-bis-CAC-DAP (1) (30 mg, 0.031 mmol) was dissolved in 40 mL of methanol (HPLC grade) and left at ambient temperature. 20 μL samples were withdrawn at several hour intervals and analyzed directly by HPLC. The conversion was complete in 48 hrs. Solvent was evaporated to dryness leaving a glossy residue which crystallized upon addition of water. Yield: 25 mg (0.028 mmol) having 97% purity by HPLC; mp 163-166° C.; Analytical HPLC RT=24 min. (Discovery column); Elemental Analysis calculated for formula C47H50ClNO14: C, 63.55%; H, 5.67%; N, 1.58%. Found: C, 63.08%; H, 5.97%; N, 1.63%.\n7-Monochloroacetylpaclitaxel (7-CAC-PAC) (4). 1 mg of 2′,7-bis-CAC-PAC (3) was dissolved in 1 mL of methanol and the solution left at ambient temperature. 20 μL samples were withdrawn at several hour intervals and directly analyzed by HPLC. The conversion was complete in 48 hours. […] (Discovery column); Elemental Analysis calculated for formula C49H52Cl NO15: C, 63.26%; H, 5.63%; N, 1.51%. […]\n7-Methoxyacetylpaclitaxel (7-MAC-PAC) (5). […] Samples (20 μl) were withdrawn at several hour intervals and analyzed directly by HPLC. […] (Suplecosil column); Elemental analysis calculated for C50 H55 NO16.H2O: C, 63.36%; H, 6.09%; N, 1.48%. […]"}}, "data": [{"smiles": "CC(=O)O[C@@]12CO[C@@H]1C[C@H](OC(=O)CCl)[C@@]1(C)C(=O)[C@H](O)C3=C(C)[C@@H](OC(=O)[C@H](OC(=O)CCl)[C@@H](NC(=O)c4ccccc4)c4ccccc4)C[C@@](O)([C@@H](OC(=O)c4ccccc4)[C@H]21)C3(C)C", "note": "[2′,7-bis-CAC-DAP, 2′,7-bis-Monochloroacetyl-10-deacetylpaclitaxel]", "values": [{"measurement": "Breakdown", "setting": "[1]; 1 mg/ml in methanol with 0.2% acetic acid, over 48 hrs.", "value": "less than 4%"}, {"measurement": "Solvolysis in more concentrated methanolic solution", "setting": "[1]; 20 mg/ml, for preparative HPLC", "value": "did not appear to undergo solvolysis"}, {"measurement": "Stability in methanol solution", "setting": "[1]; concentration of 1 mg/ml", "value": "unstable"}, {"measurement": "Conversion (loss of 2′-acyl group)", "setting": "[2]; 80% ethanol/20% water, 56° C., 24 hours", "value": "Approximately 50%"}, {"measurement": "Conversion (loss of 2′-acyl group)", "setting": "[2]; 80% ethanol/20% water, ambient temp., 22 hours", "value": "Approximately 20%"}, {"measurement": "Time to complete methanolysis of the 2′-adduct", "setting": "[2]; about 1 mg/mL in methanol, ambient temperature", "value": 48, "unit": "h"}]}, {"smiles": "COCC(=O)O[C@H]1C[C@H]2OC[C@@]2(OC(C)=O)[C@H]2[C@H](OC(=O)c3ccccc3)[C@]3(O)C[C@H](OC(=O)[C@H](OC(=O)COC)[C@@H](NC(=O)c4ccccc4)c4ccccc4)C(C)=C([C@@H](OC(C)=O)C(=O)[C@]12C)C3(C)C", "note": "[2′,7-bis-MAC-PAC]", "values": [{"measurement": "Conversion (loss of 2′-acyl group)", "setting": "[2]; 30 mg in 60 ml methanol, 47° C., within 7 hours", "value": "~90", "unit": "%"}]}, {"smiles": "CC(=O)OC12COC1CC(OC(=O)CCl)C1(C)C(=O)C(O)C3=C(C)C(OC(=O)C(O)C(NC(=O)c4ccccc4)c4ccccc4)CC(O)(C(OC(=O)c4ccccc4)C21)C3(C)C", "note": "(centres unmarked) [Compound 7-CAC-DAP, 7-Monochloroacetyl-10-deactylpaclitaxel]", "values": [{"measurement": "Breakdown to DAP", "setting": "[1]; methanol, studied for up to 120 hrs.", "value": "no significant breakdown"}]}]}
